Results: PubChem BioAssay AID248 (DTP/NCI, 2004)
Several values for one entry are separate records, joined by “and”; a condition that tells them apart may be missing. Equal entries are not always repeated. Toxic doses and inconclusive results are not listed. Rule as the data show it: active = T/C of 150% or more; inactive = T/C below 125%.

System: L1210 leukemia ip in BDF1 mice, survival T/C
Experiment: NCI In Vivo Anticancer Drug Screen. Data for tumor model L1210 Leukemia (intraperitoneal) in B6D2F1 (BDF1) mice
Details: endpoint: mean survival time, higher = longer survival
In short: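 Value reflects the ratio of survival in compound-treated mice to survival in vehicle-treated controls, with both groups carrying the same transplanted tumor.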

[1] = dose: 100.0 mg/kg/injection, schedule: Q04DX003 (ip), vehicle: saline with Tween-80
[2] = dose: 200.0 mg/kg/injection, schedule: Q04DX003 (ip), vehicle: saline with Tween-80
[3] = dose: 400.0 mg/kg/injection, schedule: Q04DX002 (ip), vehicle: saline with Tween-80
[4] = dose: 100.0 mg/kg/injection, schedule: Q04DX003 (ip), vehicle: Klucel (hydroxypropylcellulose) (HPC)
[5] = dose: 200.0 mg/kg/injection, schedule: Q04DX003 (ip), vehicle: Klucel (hydroxypropylcellulose) (HPC)
[6] = dose: 400.0 mg/kg/injection, schedule: Q04DX003 (ip), vehicle: Klucel (hydroxypropylcellulose) (HPC)
[7] = dose: 100.0 mg/kg/injection, schedule: Q04DX002 (ip), vehicle: saline with Tween-80
[8] = dose: 200.0 mg/kg/injection, schedule: Q04DX002 (ip), vehicle: saline with Tween-80
[9] = dose: 25.0 mg/kg/injection, schedule: Q01DX009 (ip), vehicle: saline with Tween-80
[10] = dose: 50.0 mg/kg/injection, schedule: Q01DX009 (ip), vehicle: saline with Tween-80
[11] = dose: 100.0 mg/kg/injection, schedule: Q01DX001 (ip), vehicle: carboxymethylcellulose (CMC)
[12] = dose: 200.0 mg/kg/injection, schedule: Q01DX001 (ip), vehicle: carboxymethylcellulose (CMC)
[13] = dose: 100.0 mg/kg/injection, schedule: Q01DX009 (ip), vehicle: saline with Tween-80
[14] = dose: 50.0 mg/kg/injection, schedule: Q04DX003 (ip), vehicle: saline with Tween-80

Measured: T/C

CCCCNc1ncnc2c1cnn2C
inactive: dose: 31.25 mg/kg/injection, schedule: Q01DX010 (ip), vehicle: saline 94 % of control and 105 % of control | dose: 50.0 mg/kg/injection, schedule: Q01DX Z (ip), vehicle: saline 102 % of control | dose: 62.5 mg/kg/injection, schedule: Q01DX010 (ip), vehicle: saline 100 % of control | dose: 75.0 mg/kg/injection, schedule: Q01DX Z (ip), vehicle: saline 100 % of control | dose: 100.0 mg/kg/injection, schedule: Q01DX Z (ip), vehicle: saline 111 % of control | dose: 125.0 mg/kg/injection, schedule: Q01DX010 (ip), vehicle: saline 97 % of control and 113 % of control | dose: 200.0 mg/kg/injection, schedule: Q01DX001 (ip), vehicle: saline 98 % of control

CCC[CH2][Sn]([c]1ccccc1)([c]1ccccc1)[c]1ccccc1
inactive: dose: 25.6 mg/kg/injection, schedule: Q04DX002 (ip), vehicle: saline with Tween-80 90 % of control | dose: 64.0 mg/kg/injection, schedule: Q04DX002 (ip), vehicle: saline with Tween-80 90 % of control | [1] 88 % of control | dose: 160.0 mg/kg/injection, schedule: Q04DX002 (ip), vehicle: saline with Tween-80 93 % of control | [2] 96 % of control | [3] 97 % of control

CCc1ccc(NC(C)=O)cc1
inactive: [1] 105 % of control | [2] 94 % of control | dose: 400.0 mg/kg/injection, schedule: Q04DX003 (ip), vehicle: saline with Tween-80 102 % of control

O=C(CCCCCCCCC(=O)OCc1ccccc1)OCc1ccccc1
inactive: dose: 100.0 mg/kg/injection, schedule: Q04DX002 (ip), vehicle: saline 96 % of control | dose: 200.0 mg/kg/injection, schedule: Q04DX002 (ip), vehicle: saline 88 % of control | dose: 400.0 mg/kg/injection, schedule: Q04DX002 (ip), vehicle: saline 100 % of control

C[N+]1([O-])C2CCC1CC(OC(=O)C(O)c1ccccc1)C2 (configuration not stated)
inactive: dose: 75.0 mg/kg/injection, schedule: Q01DX001 (ip), vehicle: saline 110 % of control | dose: 150.0 mg/kg/injection, schedule: Q01DX001 (ip), vehicle: saline 100 % of control | dose: 300.0 mg/kg/injection, schedule: Q01DX001 (ip), vehicle: saline 95 % of control

CCCCC(CN)c1cccc2ccccc12 (configuration not stated)
inactive: dose: 25.0 mg/kg/injection, schedule: Q04DX002 (ip), vehicle: saline with Tween-80 95 % of control | dose: 50.0 mg/kg/injection, schedule: Q04DX002 (ip), vehicle: saline with Tween-80 92 % of control

CC(=O)OCC1OC(OC(C)=O)C(NC(=O)N(C)C(C)=O)C(OC(C)=O)C1OC(C)=O (configuration not stated)
inactive: [4] 100 % of control | [5] 100 % of control | [6] 97 % of control

CC(=O)OCCC(COC(C)=O)n1ccc(=O)[nH]c1=O (configuration not stated)
inactive: [7] 91 % of control | [8] 105 % of control | [3] 102 % of control

O=c1[nH]n(-c2ccccc2)c(=O)c2ccccc12
inactive: dose: 100.0 mg/kg/injection, schedule: Q01DX001 (ip), vehicle: Klucel (hydroxypropylcellulose) (HPC) 110 % of control and 102 % of control | dose: 200.0 mg/kg/injection, schedule: Q01DX001 (ip), vehicle: Klucel (hydroxypropylcellulose) (HPC) 100 % of control and 94 % of control | dose: 400.0 mg/kg/injection, schedule: Q01DX001 (ip), vehicle: Klucel (hydroxypropylcellulose) (HPC) 100 % of control and 104 % of control

O=S(=O)(C(Br)CBr)C(Br)CBr (configuration not stated)
inactive: [9] 94 % of control | [10] 107 % of control

O=C(O)c1ccc(N=Cc2ccc(N(CCCl)CCCl)cc2)cc1O
inactive: [11] 95 % of control | [12] 101 % of control

CC1=NC(C#N)=C(C#N)N=C(C)C1
inactive: dose: 6.25 mg/kg/injection, schedule: Q01DX009 (ip), vehicle: Klucel (hydroxypropylcellulose) (HPC) 107 % of control | dose: 12.5 mg/kg/injection, schedule: Q01DX009 (ip), vehicle: Klucel (hydroxypropylcellulose) (HPC) 98 % of control | dose: 25.0 mg/kg/injection, schedule: Q01DX009 (ip), vehicle: Klucel (hydroxypropylcellulose) (HPC) 119 % of control | dose: 50.0 mg/kg/injection, schedule: Q01DX009 (ip), vehicle: Klucel (hydroxypropylcellulose) (HPC) 107 % of control

N=C(N)N(CC(=O)O)Cc1ccccc1
inactive: [7] 101 % of control | [8] 114 % of control | [3] 104 % of control

Nc1ccccc1S(=O)(=O)Nc1ccccc1
inactive: dose: 100.0 mg/kg/injection, schedule: Q01DX009 (ip), vehicle: Klucel (hydroxypropylcellulose) (HPC) 98 % of control | [4] 92 % of control | dose: 200.0 mg/kg/injection, schedule: Q01DX009 (ip), vehicle: Klucel (hydroxypropylcellulose) (HPC) 95 % of control | [5] 97 % of control | dose: 400.0 mg/kg/injection, schedule: Q01DX009 (ip), vehicle: Klucel (hydroxypropylcellulose) (HPC) 87 % of control | [6] 100 % of control

CCCCCCCNC1=C(c2ccccc2)C(=O)C(NCCCCCCC)=C(c2ccccc2)C1=O
inactive: [11] 94 % of control | [12] 96 % of control | dose: 400.0 mg/kg/injection, schedule: Q01DX001 (ip), vehicle: carboxymethylcellulose (CMC) 91 % of control

O=C(O)c1ccc([N+](=O)[O-])o1
inactive: [13] 89 % of control | dose: 100.0 mg/kg/injection, schedule: Q04DX003 (ip), vehicle: other 100 % of control | dose: 200.0 mg/kg/injection, schedule: Q01DX009 (ip), vehicle: saline with Tween-80 97 % of control | dose: 200.0 mg/kg/injection, schedule: Q04DX003 (ip), vehicle: other 96 % of control

CN(C)CCOCCOC(=O)N1c2ccccc2Sc2ccccc21
inactive: dose: 6.25 mg/kg/injection, schedule: Q01DX009 (ip), vehicle: saline 106 % of control | dose: 6.25 mg/kg/injection, schedule: Q04DX003 (ip), vehicle: saline 102 % of control | dose: 12.5 mg/kg/injection, schedule: Q01DX009 (ip), vehicle: saline 95 % of control | dose: 12.5 mg/kg/injection, schedule: Q04DX003 (ip), vehicle: saline 105 % of control | dose: 25.0 mg/kg/injection, schedule: Q01DX009 (ip), vehicle: saline 97 % of control | dose: 25.0 mg/kg/injection, schedule: Q04DX003 (ip), vehicle: saline 97 % of control and 98 % of control | dose: 50.0 mg/kg/injection, schedule: Q01DX009 (ip), vehicle: saline 88 % of control | dose: 50.0 mg/kg/injection, schedule: Q04DX003 (ip), vehicle: saline 107 % of control and 109 % of control | dose: 100.0 mg/kg/injection, schedule: Q01DX009 (ip), vehicle: saline 103 % of control | dose: 100.0 mg/kg/injection, schedule: Q04DX003 (ip), vehicle: saline 102 % of control and 109 % of control

CCCCn1cnc2c(SSc3ncnc4c3ncn4CCCC)ncnc21
inactive: dose: 37.5 mg/kg/injection, schedule: Q01DX Z (ip), vehicle: saline 109 % of control | dose: 150.0 mg/kg/injection, schedule: Q01DX Z (ip), vehicle: saline 124 % of control | dose: 166.0 mg/kg/injection, schedule: Q04DX003 (ip), vehicle: gum acacia 121 % of control

CCOc1ccnc(OCC)n1
inactive: [9] 86 % of control | dose: 25.0 mg/kg/injection, schedule: Q04DX003 (ip), vehicle: saline with Tween-80 95 % of control | [10] 100 % of control | [14] 97 % of control | [13] 91 % of control | [1] 106 % of control

N/N=C(/C=N/N)C(O)CO (configuration not stated)
inactive: dose: 25.0 mg/kg/injection, schedule: Q01DX001 (ip), vehicle: saline with Tween-80 95 % of control | dose: 50.0 mg/kg/injection, schedule: Q01DX001 (ip), vehicle: saline with Tween-80 98 % of control | dose: 100.0 mg/kg/injection, schedule: Q01DX001 (ip), vehicle: saline with Tween-80 89 % of control and 92 % of control | dose: 400.0 mg/kg/injection, schedule: Q01DX001 (ip), vehicle: saline with Tween-80 92 % of control

CC(=O)CCC(C(=O)c1ccccc1)c1ccccc1 (configuration not stated)
inactive: dose: 222.0 mg/kg/injection, schedule: Q01DX Z (ip), vehicle: methylcellulose (MC) 101 % of control

O=S(=O)(CBr)N1CCOCC1
inactive: [14] 93 % of control | [1] 98 % of control | [2] 98 % of control

S=c1cccc[nH]1
inactive: [4] 101 % of control | [5] 102 % of control | [6] 96 % of control
